Reference: patent US12187713B2, “Immunomodulators, compositions and methods thereof” (Betta Pharmaceuticals Co., Ltd, priority 2019, dated 2025)

How the values were obtained:
PD-1/PD-L1 = PD-1/PD-L1 (Homo sapiens (Human), UniProt Q9NZQ7); experiment: PD-1/PD-L1 Binding Assay (Alphascreen)
How it was run: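 PD-1/PD-L1 binding detected by anti-6×His acceptor and streptavidin donor beads after 120 min in the dark at 25 °C. Beforehand, the two proteins were incubated 15 min at 25 °C with inhibitor at 0.015–300 nM (1% DMSO). IC50 comes from a log concentration–response curve.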

[1] = Pharmacokinetic Assay, single oral dose 100 mg/kg (Table 11); assay type: in vivo; details: mouse, C57 female mice, oral (intragastric), plasma
Procedure: Adult C57 female mice were received to single-dose of the test compounds with […], 10% Kolliphor^@HS 15 and 80% saline as excipients, the mice (n=9) were giving oral administration (intragastric administration) with the compounds at a dose of 100 mg/kg. Time of blood collection: 15 min, 30 min, 1 h, 2 h, 4 h, 7 h, 24 h. Approximately 0.1 mL of whole blood was collected from retro-orbital venous plexus of 3 mice at each time point, and placed into tubes that contained K2-EDTA as an anticoagulant. The whole blood was centrifuged at 4° C. and 4000 rpm for 10 min. The plasma was transferred into centrifuge tubes, and stored at −20° C. until being analyzed. Concentrations of test compounds in the plasma samples were analyzed with liquid chromatography-tandem mass spectrometry (LC-MS/MS). Plasma concentration-time data of individual animals was analyzed using Microsoft Excel 2010. Non-compartmental model was introduced in concentration analysis. The pharmacokinetic parameters of the test compounds were calculated using WinNonlin (version 4.1; Pharsight) software.

[2] = Pharmacokinetic Assay, single oral dose 5 mg/kg (Table 12); assay type: in vivo; details: mouse, plasma concentration, C57 female mice, single oral dose 5 mg/kg
How it was run: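 Adult female C57 mice (n=3) got one intragastric dose of 5 mg/kg in 15% DMSO, 10% Kolliphor HS 15, 75% saline. Retro-orbital blood was taken at 30 min, 2 h and 4 h into K2-EDTA. Plasma levels were measured by LC-MS/MS.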

Chain of PD-1/PD-L1 (Q9NZQ7 19-238): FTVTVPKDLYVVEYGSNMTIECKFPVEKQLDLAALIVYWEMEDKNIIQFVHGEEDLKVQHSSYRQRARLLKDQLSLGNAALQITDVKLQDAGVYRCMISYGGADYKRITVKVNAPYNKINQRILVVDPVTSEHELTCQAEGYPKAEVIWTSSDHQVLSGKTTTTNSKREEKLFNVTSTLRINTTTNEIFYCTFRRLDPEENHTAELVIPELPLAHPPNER

| IC50 (PD-1/PD-L1; numeric values) [nM] | AUC [1] [ng·h/mL] | Cmax [1] [ng/mL] | Tmax [1] [h] | half-life [1] [h] | IC50 (PD-1/PD-L1; range symbols) [nM] | concentration at 0.5 h ([2]; 0.5 h) [ng/mL] | concentration at 2 h ([2]; 2 h) [ng/mL] | concentration at 4 h ([2]; 4 h) [ng/mL] | SMILES |
| --- | --- | --- | --- | --- | --- | --- | --- | --- | --- |
| 0.5 | 5710 | 931 | 1 | 9.83 |  |  |  |  | CNCc1cc2nc(-c3cccc(-c4cccc(-c5nc6cc(CN7CCC[C@H]7C(=O)O)c(OC(F)F)cc6o5)c4C)c3C)oc2cc1OC(F)F [Example 15, ((6-(difluoromethoxy)-2-(3′-(6-(difluoromethoxy)-5-((methylamino)methyl)benzo[d]oxazol-2-yl)-2,2′-dimethyl-[1,1′-biphenyl]-3-yl)benzo[d]oxazol-5-yl)methyl)-L-proline] |
|  | 3470 | 965 | 1 | 3.66 | 0.1 to 5 |  |  |  | Cc1c(Nc2nccc3cc(CN4CCC[C@@]4(C)C(=O)O)cnc23)cccc1-c1cccc(-c2nc3cc(CN4CCC[C@H]4C(=O)O)c(OC(F)F)cc3o2)c1C [Example 171, (S)-1-((8-((3′-(5-(((S)-2-carboxypyrrolidin-1-yl)methyl)-6-(difluoromethoxy)benzo[d]oxazol-2-yl)-2,2′-dimethyl-[1,1′-biphenyl]-3-yl)amino)-1,7-naphthyridin-3-yl)methyl)-2-methylpyrrolidine-2-carboxylic acid] |
| 1.3 | 56100 | 4260 | 4 | 6.99 |  | 46.8 | 136 | 154 | Cc1c(-c2nc3cc(CN4CC(C)(C)C4)c(OC(F)F)cc3o2)cccc1-c1cccc(-c2nc3cc(CN4CCC[C@H]4C(=O)O)c(OC(F)F)cc3o2)c1C [Example 34, ((6-(difluoromethoxy)-2-(3′-(6-(difluoromethoxy)-5-((3,3-dimethylazetidin-1-yl)methyl)benzo[d]oxazol-2-yl)-2,2′-dimethyl-[1,1′-biphenyl]-3-yl)benzo[d]oxazol-5-yl)methyl)-L-proline] |
|  | 10100 | 713 | 1 | 21.7 | 0.1 to 5 |  |  |  | Cc1c(-c2nc3ccc(CN4CCCC4)cc3o2)cccc1-c1cccc(-c2nc3cc(CN4CCC[C@H]4C(=O)O)c(OC(F)F)cc3o2)c1C [Example 108, ((6-(difluoromethoxy)-2-(2,2′-dimethyl-3′-(6-(pyrrolidin-1-ylmethyl)benzo[d]oxazol-2-yl)-[1,1′-biphenyl]-3-yl)benzo[d]oxazol-5-yl)methyl)-L-proline] |
| 2 | 78100 | 5740 | 2 | 7.01 |  |  |  |  | Cc1c(-c2ccc(CN3CCCC3)c(OC(F)F)c2)cccc1-c1cccc(-c2nc3cc(CN4CCC[C@H]4C(=O)O)c(OC(F)F)cc3o2)c1C [Example 244, ((6-(difluoromethoxy)-2-(3″-(difluoromethoxy)-2,2′-dimethyl-4″-(pyrrolidin-1-ylmethyl)-[1,1′:3′,1″-terphenyl]-3-yl)benzo[d]oxazol-5-yl)methyl)-L-proline] |
| 1.2 | 42700 | 3720 | 1 | 4.67 |  |  |  |  | Cc1c(-c2nc3cc(CNC[C@H]4CCCO4)c(OC(F)F)cc3o2)cccc1-c1cccc(-c2nc3cc(CN4CCC[C@H]4C(=O)O)c(OC(F)F)cc3o2)c1C [Example 29, ((6-(difluoromethoxy)-2-(3′-(6-(difluoromethoxy)-5-(((((R)-tetrahydrofuran-2-yl)methyl)amino)methyl)benzo[d]oxazol-2-yl)-2,2′-dimethyl-[1,1′-biphenyl]-3-yl)benzo[d]oxazol-5-yl)methyl)-L-proline] |
